Test results from ChEMBL document CHEMBL3616443, “Synthesis and biological evaluation of ring A and/or C expansion and opening echinocystic acid derivatives for anti-HCV entry inhibitors” (2015).
The source made the active and inactive calls. The calls are words filed in the database; no cut-off is given here.

How the values were obtained:
[1] = system: Hepatitis C virus; assay: Antiviral activity against HCV psuedoparticles infected in human Huh7 cells assessed as inhibition of virus entry at 1 to 5 uM using Bright Glo reagent after 72 hrs by Luciferase reporter gene assay; assay type: functional
[2] = system: Vesicular stomatitis virus; assay: Antiviral activity against VSV psuedoparticles infected in human Huh7 cells assessed as inhibition of virus entry at 1 to 5 uM using Bright Glo reagent after 72 hrs by Luciferase reporter gene assay; assay type: functional, organism-based; conditions: Huh-7
[3] = system: Hepatitis C virus; assay: Antiviral activity against HCV psuedoparticles infected in human Huh7 cells assessed as inhibition of virus entry at 10 uM using Bright Glo reagent after 72 hrs by Luciferase reporter gene assay; assay type: functional, Hepacivirus hominis, Huh-7; design: scale not given: the % may be the effect or the level left

Compound	Activity ([1]; Hepacivirus hominis, Huh-7)	Activity [2]	Activity [3]	Activity [1]
CC1(C)CC[C@]2(CO)[C@H](O)C[C@]3(C)[C@H](C(O)C[C@@H]4[C@@](C)(CCCO)[C@H](C(C)(C)O)CC[C@]43C)[C@@H]2C1 (stereo not given in full)	Active	inactive		
CC1(C)CC[C@]2(C(=O)O)[C@H](O)C[C@]3(C)[C@H](C(=O)C=C4[C@@]5(C)CC[C@H](O)C(C)(C)[C@@H]5CC[C@]43C)[C@@H]2C1	Active	inactive		
CC1(C)CC[C@]2(C(=O)O)[C@H](O)C[C@]3(C)[C@H](OC(=O)C[C@@H]4[C@@]5(C)CC[C@H](O)C(C)(C)[C@@H]5CC[C@]43C)[C@@H]2C1	Active	inactive		
CC1(C)CC[C@]2(C(=O)O)[C@H](O)C[C@]3(C)[C@H](C(=O)C[C@@H]4[C@@]5(C)CCC(=O)OC(C)(C)[C@@H]5CC[C@]43C)[C@@H]2C1	Active	inactive		
CC1(C)CC[C@]2(C(=O)O)[C@H](O)C[C@]3(C)[C@H](C(=O)OC[C@@H]4[C@@](C)(CCC(=O)O)[C@H](C(C)(C)O)CC[C@]43C)[C@@H]2C1	Active	inactive		
CC1(C)CC[C@]2(C(=O)O)[C@H](O)C[C@]3(C)[C@H](C(=O)OC[C@@H]4[C@@]5(C)CCC(=O)OC(C)(C)[C@@H]5CC[C@]43C)[C@@H]2C1	Active	inactive		
CC1(C)CC[C@]2(C(=O)O)[C@H](O)C[C@]3(C)[C@H](OC(=O)C[C@@H]4[C@@](C)(CCC(=O)O)[C@H](C(C)(C)O)CC[C@]43C)[C@@H]2C1	Active	inactive		
C=C(C)[C@@H]1CC[C@]2(C(=O)O)CC[C@]3(C)[C@H](CC[C@@H]4[C@@]5(C)CC[C@H](O)C(C)(C)[C@@H]5CC[C@]43C)[C@@H]12 [BETULINIC ACID]			75%	
CC1(C)[C@@H](O)CC[C@]2(C)[C@H]3C(=O)C=C4[C@@H]5C[C@@](C)(C(=O)O)CC[C@]5(C)CC[C@@]4(C)[C@]3(C)CC[C@@H]12 [ENOXOLONE]			5%	
CC1(C)CC[C@]2(CO)[C@H](O)C[C@@](C)([C@]3(C)CC[C@H]4C(C)(C)[C@@H](O)CC[C@]4(C)C3CCO)C(O)[C@@H]2C1 (stereo not given in full)	Active	inactive		
CC1(C)CC[C@]2(C(=O)O)[C@H](O)C[C@]3(C)[C@H](C(=O)C[C@@H]4[C@@](C)(CCC(=O)O)[C@H](C(C)(C)O)CC[C@]43C)[C@@H]2C1	Active	inactive		
CC1(C)CC[C@]2(C(=O)O)[C@H](O)C[C@]3(C)[C@H](C(=O)OC[C@@H]4[C@@]5(C)CC[C@H](O)C(C)(C)[C@@H]5CC[C@]43C)[C@@H]2C1	Active	inactive		
C[C@H]1[C@H](C)CC[C@]2(C(=O)O)CC[C@]3(C)C(=CC[C@@H]4[C@@]5(C)CC[C@H](O)C(C)(C)[C@@H]5CC[C@]43C)[C@H]12 [URSOLIC ACID]			30%	
CC1(C)CC[C@]2(C(=O)O)[C@H](O)C[C@]3(C)[C@H](OC(=O)C[C@@H]4[C@@]5(C)CCC(=O)OC(C)(C)[C@@H]5CC[C@]43C)[C@@H]2C1	Active	inactive		
COC(=O)[C@]12CCC(C)(C)C[C@H]1[C@H]1C(=O)OC[C@@H]3[C@@]4(C)CC[C@H](O)C(C)(C)[C@@H]4CC[C@@]3(C)[C@]1(C)C[C@H]2O	Active	inactive		
CC1(C)CC[C@]2(C(=O)O)[C@H](O)C[C@]3(C)C(=CC[C@@H]4[C@@]5(C)CC[C@H](O)C(C)(C)[C@@H]5CC[C@]43C)[C@H]2C1 [ECHINOCYSTIC ACID]				90%
COC(=O)[C@]12CCC(C)(C)C[C@H]1[C@H]1OC(=O)C[C@@H]3[C@@]4(C)CC[C@H](O)C(C)(C)[C@@H]4CC[C@@]3(C)[C@]1(C)C[C@H]2O	Active	inactive		
